The values below come from ChEMBL document CHEMBL3639022, “Azolopyridin-3-one derivatives as inhibitors of lipases and phospholipases” (2015).

For this experiment, the target named is T1, Endothelial lipase (Homo sapiens, UniProt Q9Y5X9).
T1 sequence (Q9Y5X9 whole entry): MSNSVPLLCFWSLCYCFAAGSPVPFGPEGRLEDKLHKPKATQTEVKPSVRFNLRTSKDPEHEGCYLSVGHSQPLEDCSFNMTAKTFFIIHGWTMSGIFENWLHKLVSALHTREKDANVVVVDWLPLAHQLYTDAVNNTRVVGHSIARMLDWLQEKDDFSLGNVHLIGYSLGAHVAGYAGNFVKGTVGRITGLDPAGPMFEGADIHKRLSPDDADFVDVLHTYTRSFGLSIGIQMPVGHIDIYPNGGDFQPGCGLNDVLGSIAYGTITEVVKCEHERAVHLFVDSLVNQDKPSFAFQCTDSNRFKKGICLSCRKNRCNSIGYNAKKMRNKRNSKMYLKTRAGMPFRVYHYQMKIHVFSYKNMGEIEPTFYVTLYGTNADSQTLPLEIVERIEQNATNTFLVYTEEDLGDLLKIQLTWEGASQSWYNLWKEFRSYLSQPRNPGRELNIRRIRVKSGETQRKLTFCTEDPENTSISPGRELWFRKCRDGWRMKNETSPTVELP
The experiment in a line: Enzyme Assay: For characterization of the enzymatic activity of endothelial lipase and the effect of inhibitors, the phospholipase-specific substrate 1,2-bis(4,4-difluoro-5,7-dimethyl-4-bora-3a,4a-diaza-s-indacene-3-undecanoyl)-sn-glycero-3-phosphocholine (manufacturer: Molecular Probes) was used. Hydrolysis of the A1 ester bond of this phospholipid by the enzyme releases the fluorescent dye Bodipy, which can be detected by measuring the fluorescence after separation by thin-layer chromatography on an HPTLC plate (silica gel 60, Merck) or directly in the reaction vessel. To prepare the substrate solution, 100 ug of 1,2-bis(4,4-difluoro-5,7-dimethyl-4-bora-3a,4a-diaza-s-indacene-3-undecanoyl)-sn-glycero-3-phosphocholine (manufacturer: Molecular Probes) were dissolved in 100 ul of DMSO and taken up in 2.4 mg of tripalmitin (Sigma) in 393 ul of chloroform which contained 20 mg/ml DOPcholine (1,2-dioleoyl-sn-glycero-3-phosphocholine).

Take `O=C(NCc1ccccc1OC(F)F)n1sc2ncccc2c1=O`: half-maximal inhibition (IC50) required 138 nM.
